Experimental data from patent US20230109697A1, “COMBINED ANTI-CYTOKINE THERAPY TO REDUCE METASTATIC CANCER” (The Board of Trustees of the Leland Stanford Junior …, priority 2020, published 2023).

B1: recombinant IL4: recombinant cytokine IL4 (Peprotech), control (protein, UniProt P05112 25-153, looked up)
Interleukin-4: HKCDITLQEIIKTLNSLTEQKTLCTELTVTDIFAASKNTTEKETFCRAATVLRQFYSHHEKDTRCLGATAQQFHRHKQLIRFLKRLDRNLWGLAGLNSCPVKEANQSTLENFLERLKTIMREKYSKCSS

Key:
[1] = system: non-polarized macrophages; assay: Macrophage polarization by qPCR, MYC-HCC conditioned medium with recombinant cytokines; format: cell-based, mouse; details: recombinant cytokine added to cultured MYC-HCC cells
Protocol: FIG. 11. a. Quantification of migration of macrophages treated with MYC- or MYC/Twist1 -cells conditioned media. b. Expression of M1 marker genes in macrophages treated with conditioned media from MYC-HCC or MYC/Twist1-HCC. c. Spheroid co-culture assay of MYC/Twist1 -cells and macrophages after treatment with either CCL2 antibody or control antibody. F4/80 staining was performed to quantify number of spheroids with macrophage infiltration (*p<0.05). d. Experimental scheme- Conditioned medium of MYC-HCC cells treated with PBS or recombinant IL13 or CCL2 respectively was added to non-polarized macrophages for 48 hours. Macrophage polarization was assessed by qPCR for M2 markers (ARG1, […]) and M1 markers (IFNAR2, CCR2) (**p<0.005).
Quantitative Real-Time PCR: RNA was isolated using RNeasy plus mini kit according to the manufacturer’s instructions (Qiagen). cDNA was synthesized using SuperScript III (ThermoFisher). qPCR was performed using specific primers (Supplemental Table 1) and SYBR Green (Roche) in an Applied Biosystems Real Time PCR System (Life Technologies). Data were normalized to UBC. A minimum of 3 biological and 3 technical replicates were used for all qPCR experiments.

MYC-HCC = assay: Orthotopic MYC-HCC transplant in NSG mice treated with recombinant cytokines; format: in vivo, mouse; details: for macrophage infiltration increase: IHC staining for F4/80; for metastases (FC): single cytokine vs control, 4 weeks
Protocol: FIG. 5 Both CCL2 and IL13 are required to promote Twist1-driven metastasis. a. Experimental scheme- Mice orthotopically transplanted with MYC-HCC cells were treated either with PBS or IL13 or CCL2 or CCL2+IL13 recombinant cytokines for 4 weeks. b. Representative histopathology of lung sections from MYC-HCC bearing mice treated with PBS or CCL2+IL13. c. Histopathology of liver ([…]) of MYC-HCC bearing mice treated with PBS or CCL2 or IL13 or CCL2+IL13 and IHC for F4/80 and MYC expression in each group. d. Quantification of number of metastatic nodules in the liver control treated or recombinant cytokine treated MYC-HCC bearing mice. (**p<0.01). e. Quantification of macrophage infiltration in liver by IHC staining for F4/80 of MYC-HCC bearing mice liver treated with PBS or CCL2 or IL13 or CCL2+IL13. f. Histopathology of lung (1X and 20X) of MYC-HCC bearing mice treated with PBS or CCL2 or IL13 or CCL2+IL13 and IHC for F4/80 and MYC expression in each group. g. Quantification of number of metastatic nodules in the lung of control treated or recombinant cytokine treated MYC-HCC bearing mice. (**p<0.01). h. Quantification of macrophage infiltration in lung by IHC staining for F4/80 of MYC-HCC bearing mice liver treated with PBS or CCL2 or IL13 or CCL2+IL13.
Orthotopic transplantation assay: An orthotopic mouse model was established by transplanting mouse MYC- or MYC/Twist1-HCC tumors (1 mm^3) under the liver capsule of NOD/Scid/Gamma (NSG) recipient mice. Bioluminescent (BLI) and MRI scans monitoring are used to monitor tumor engraftment and growth. Mice are euthanized once predetermined specific endpoints are met or based on morbidity whichever occurs first.
in vivo treatment mouse models: For antibody treatment, mice were injected i.p. with isotype control IgG or anti-CCL2 (BioXcell), -IL13 and -IL4 (Genentech) antibody (10 mg/kg body weight three times per week). For recombinant cytokines treatment, mice were injected i.p. three times per week with PBS or CCL2 (Peprotech, 500 ng/mouse), IL13 and IL4 (Peprotech, 250 ng/mouse). For clodronate liposomes (CL) treatment, CL or control liposomes were administered i.p. at 6.5 µl/g body weight 3 times per week to NSGs mice. CL and control treatments were administered to NSG mice previously injected i.v. with 0.5×10^6 MYC/twist1-HCC cells or orthotopically transplanted with MYC/Twist1-HCC tumors. Experimental and control mice were killed 4 weeks after tumor were transplanted. Primary tumors and lung metastases were collected for H&E staining and IHC.

CCR2 chemokine receptor = target: T1, CCR2 chemokine receptor (Homo sapiens, UniProt P41597); details: cited from earlier work
T1 construct: endogenous in cells; host or cells: THP-1
T1 sequence (P41597 whole entry): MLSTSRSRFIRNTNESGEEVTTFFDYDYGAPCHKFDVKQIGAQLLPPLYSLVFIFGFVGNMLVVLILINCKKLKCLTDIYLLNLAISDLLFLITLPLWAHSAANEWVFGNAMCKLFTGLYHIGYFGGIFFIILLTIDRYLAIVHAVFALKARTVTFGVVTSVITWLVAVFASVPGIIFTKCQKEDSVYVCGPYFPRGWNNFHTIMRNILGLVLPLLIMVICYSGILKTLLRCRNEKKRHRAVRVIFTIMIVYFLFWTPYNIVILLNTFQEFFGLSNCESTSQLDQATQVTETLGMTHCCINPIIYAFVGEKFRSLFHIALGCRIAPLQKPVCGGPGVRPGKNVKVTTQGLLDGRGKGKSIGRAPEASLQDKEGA

| Molecule | M2 marker expression [1] | macrophage infiltration increase (MYC-HCC) | metastases (FC) (MYC-HCC) | IC50 (CCR2 chemokine receptor; THP-1 cell line, pre-clinical studies, read-out: IC50, inhibition of MCP-1 induced calcium mobilization and chemotaxis) [nM] | selectivity for CCR2 (CCR2 chemokine receptor) [fold] | effect on metastasis (MYC-HCC; mouse, in vivo) |
| --- | --- | --- | --- | --- | --- | --- |
| IL13: recombinant cytokine IL13 (Peprotech) | increased M2 marker expression | did not increase macrophage infiltration | 1 |  |  |  |
| CCL2: recombinant cytokine CCL2 (Peprotech) | not | 1.8 fold | 3 |  |  |  |
| CC(C)(C)N1CCN[C@@H](C(=O)N2CCN(C(=O)Nc3ccc(Cl)c(F)c3)CC2)C1 [AZD2423] |  |  |  | 4 | > 500 |  |
| B1 |  | did not elicit macrophage recruitment |  |  |  | did not elicit macrophage recruitment or increase metastasis |
